Experimental data from patent US20230123140A1, “DOSE TREATMENTS OF TAUOPATHIES” (AC Immune SA, priority 2020, published 2023).
“And” between values parts separate entries of the source, which are not always exact repeats. Identical values can stand only once.

Assays:
Format in all cases: in vivo
[1] = CSF concentrations of ACI-3024 in MAD cohort MAD-HV3
Experimental: Methods for measuring the amount of administered compound, such as ACI-3024, in CSF of a subject are well know in the art. As an example, CSF can be drawn by lumbar puncture and content of the administered compound can be analysed by a LC-MS/MS method, among other methods.
Cohorts MAD-HV1 to MAD-HV3 comprised 10 elderly non-Japanese male or female subjects, 8 were treated with ACI-3024 and 2 were being given placebo. Cohort MAD-HV4 comprised 5 non-elderly Japanese subjects (4 treated with ACI-3024 and 1 given placebo) and 5 […] (4 treated with ACI-3024 and 1 given placebo). Only subjects from MAD HV3 cohort underwent CSF samplings to explore the CSF inflammatory markers, CSF PK, and CSF PD of ACI-3024. For all subjects, dosing was on […], inclusive, and a final single dose administration occurred on […]. Dose in cohort MAD HV1 was 500 mg of ACI-3024 or placebo, QD, fasted. Dose in cohorts MAD HV2 and MAD HV4 was 500 mg of ACI-3024 or placebo, BID (“bis in die” ie., twice a day), fed. Dose in cohort MAD HV3 was 1400 mg of ACI-3024 or placebo, QD (“quaque die” (once a day), fed.

cardiovascular system = test: Cardiovascular evaluation in telemetrized mini-pig; conditions: single oral dose 0, 50, 150 and 450 mg/kg, male Gottingen mini-pigs
Experimental: This study was conducted to evaluate the potential effects on the cardiovascular system of ACI-3024 when given as single dose to telemetrized Gottingen mini-pig.
Doses of 0, 50, 150 and 450 mg/kg were administered by oral gavage to 4 males/group. The dose volume was set at 5 mL/kg. The study was a randomized cross over design which consisted of four phases separated by seven days of wash out. In each phase each animal received as single administration of one selected doses. Through the phases each animal received all the dose levels once. ECG (heart rate, duration of the PR, QRS, QT, QTcF (QT interval corrected by Fridericia) and RR intervals (millisecond; ms), blood pressure (systolic, diastolic, and mean arterial pressure) and body temperature parameters through a transmitter implanted into the animals were continuously recorded starting from 30 minutes before dosing up to 20 hours after dose. Different timepoints during the recording period were sampled (−30 min (before dose) and 1 h, 2 h, 4 h, 6 h, 8 h, 12 h and 20 h (after dose)), per each timepoint 5-minute segment was used for study purposes.

[2] = Toxicokinetics in the 4-week mini-pig toxicity study; conditions: for AUC(0-t) / Cmax / Tmax: Gottingen, minipig, plasma, Day 28, 450 mg/kg oral
Experimental: Doses tested, 50, 150 and 450 mg/kg were given by p.o. to 3 animals/sex/group daily. The control animals were administered vehicle. The dose volume was 5 mL/kg for all groups.
Toxico Kinetic (TK) was evaluated on all animals on study Day 1 and Day 28 at different time points.

[3] = both sexes, average M/F minipigs

## Fc1ccc2c3c([nH]c2c1)CCN(c1ccc2oc(N4CCOCC4)nc2c1)C3 [ACI-3024]
[1]; MAD, 1400 mg, target established in animal models
  CSF pre-dose concentrations versus target: > 30 nM
[1]; both sexes, human, CSF, oral, elderly subjects, multiple doses of 1400 mg QD (fed), read-out: CSF concentration as share of the corresponding plasma concentration
  Kp: 0.003 to 0.015
[1]; extrapolated from 1400 mg CSF data
  dose that would provide sufficient CSF exposure (30 nM): 300 to 400 mg/day
[1]; multiple oral doses of 1400 mg, Day 7
  pre-dose (Cmin) CSF concentration: 36.4±13.6 ng/mL and 90 nM
Cardiovascular system
  effect on cardiovascular parameters and body temperature: no effect
[2]; 50 to 450 mg/kg, except males on Day 1
  dose proportionality of plasma exposure: approximately dose-proportionally
[2]; female minipigs
  AUC(0-t): 101 µg·h/mL
  Cmax: 7350 ng/mL
  Tmax: 4 h
[2]; male minipigs
  AUC(0-t): 233 µg·h/mL
  Cmax: 12300 ng/mL
  Tmax: 6 h
[2]; [3]
  AUC(0-t): 167 µg·h/mL
  Cmax: 9840 ng/mL
  Tmax: 5 h
